Ten compounds from patent EP4664463A1, “COMPUTER-IMPLEMENTED METHOD FOR OLFACTORY PROPERTY PREDICTION” (Givaudan SA, priority 2024, dated 2025) can be followed below.

Molecules are shown by their SMILES. Where two headings read alike, the source gives them in different places.

Data set [1] deals with T1, OR identified in the library screening (receptor named per line) (Homo sapiens, UniProt Q8WZ84).
T1 construct: expressed in transfected cells; host or cells: HEK293T stably expressing human RTP1S(V227I) and RTP2(L220R) (general method)
As to the kind of experiment: Confirmatory dose-response of library hits, wild-type OR vs OR with C-terminus SEQ ID NO: 221 (Table 17). The class given is cell-based. To be noted: receptor OR8D1, wild-type sequence; read-out: Potency EC50 wild-type (converted).
Method: (§2) Selected ligand - OR pairs were then tested in a confirmatory test with a dose response analysis.
(§3) Dose-response analysis with the cognate ligand was then performed for both the wild-type and the modified sequence.

Data set [2] addresses T2, OR identified in the library screening (receptor named per line) (Homo sapiens, UniProt Q8NGC4, S73G).
T2 construct: expressed in transfected cells; host or cells: HEK293T stably expressing human RTP1S(V227I) and RTP2(L220R) (general method)
Described as above. Particulars: receptor OR10G3(S73G), wild-type sequence; read-out: Potency EC50 wild-type (converted). Type of data set: cell-based.
Method: as §2, §3

The target of data set [3] is T3, OR identified in the library screening (receptor named per line) (Homo sapiens, UniProt Q8NG80).
T3 construct: expressed in transfected cells; host or cells: HEK293T stably expressing human RTP1S(V227I) and RTP2(L220R) (general method)
The data set is described as above. Type of data set: cell-based. Particulars: receptor OR2L5, wild-type sequence; read-out: Potency EC50 wild-type (converted).
Method: as §2, §3

In data set [4] the target is T4, OR1N2 (Homo sapiens, UniProt Q8NGR9).
T4 construct: expressed in transfected cells; host or cells: HEK293T cells stably expressing human RTP1S (V227I) and RTP2 (L220R)
The class given is cell-based. Particulars: changed C-term. SEQ ID NO: 86. From the text: (§1) To create an expression plasmid, an OR coding sequence fused at the end of TM7 to the desired C-terminus sequence was synthesized by a DNA synthesis service provider (BioCat GmbH, Germany) and inserted into pcDNA3.1(+) (Invitrogen, MA, USA) downstream of the CMV promoter sequence (SEQ ID NO: 82) using BamHI and Notl restriction sites. All the synthetic OR nucleotide sequences described below in Examples 1-15 further contained at their N-terminus a nucleotide sequence encoding a signal peptide (mmLucy-FLAG-rho, SeQ ID NOs: 80, 81) and at the C-terminus the bgh terminator sequence (SEQ ID NO: 83). All the OR expression plasmids also contain a Kozak sequence (GCCACC) between the BamHI restriction site and the start codon of the signal peptide. These plasmids thus contain a constitutively expressed OR gene.
T4 sequence (Q8NGR9 with tags, fused parts or gaps): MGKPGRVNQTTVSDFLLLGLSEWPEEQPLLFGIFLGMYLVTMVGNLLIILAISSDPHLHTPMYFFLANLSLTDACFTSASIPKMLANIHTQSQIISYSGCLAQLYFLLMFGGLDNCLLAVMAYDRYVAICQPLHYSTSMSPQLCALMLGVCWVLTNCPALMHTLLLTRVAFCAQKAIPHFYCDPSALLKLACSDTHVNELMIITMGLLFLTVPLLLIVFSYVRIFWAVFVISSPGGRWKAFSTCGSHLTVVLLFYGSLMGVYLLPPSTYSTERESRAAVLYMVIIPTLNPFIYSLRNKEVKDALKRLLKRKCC

Data set [5] deals with T5, OR1N2 (Homo sapiens, UniProt Q8NGR9).
T5 construct: expressed in transfected cells; host or cells: HEK293T cells stably expressing human RTP1S (V227I) and RTP2 (L220R)
The class given is cell-based. To be noted: wild-type.
Source text: as §1
T5 sequence (Q8NGR9 whole entry): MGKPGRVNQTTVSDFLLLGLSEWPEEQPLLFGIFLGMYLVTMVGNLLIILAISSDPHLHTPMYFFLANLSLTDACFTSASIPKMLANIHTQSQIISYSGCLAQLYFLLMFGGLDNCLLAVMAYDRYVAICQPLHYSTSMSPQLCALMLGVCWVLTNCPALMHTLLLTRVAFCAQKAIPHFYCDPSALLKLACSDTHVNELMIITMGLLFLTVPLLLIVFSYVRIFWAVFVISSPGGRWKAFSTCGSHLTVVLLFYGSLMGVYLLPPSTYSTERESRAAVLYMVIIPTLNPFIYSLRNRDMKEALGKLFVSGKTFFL

Data set [6] concerns the target T6, OR9Q2 (Homo sapiens, UniProt Q8NGE9).
T6 construct: expressed in transfected cells; host or cells: HEK293T cells stably expressing human RTP1S (V227I) and RTP2 (L220R)
As to the kind of experiment: Luciferase dose-response, wild-type vs changed C-terminus (SEQ ID NO: 86). The class given is cell-based. Particulars: wild-type; read-out: Potency EC50.
T6 sequence (Q8NGE9 whole entry): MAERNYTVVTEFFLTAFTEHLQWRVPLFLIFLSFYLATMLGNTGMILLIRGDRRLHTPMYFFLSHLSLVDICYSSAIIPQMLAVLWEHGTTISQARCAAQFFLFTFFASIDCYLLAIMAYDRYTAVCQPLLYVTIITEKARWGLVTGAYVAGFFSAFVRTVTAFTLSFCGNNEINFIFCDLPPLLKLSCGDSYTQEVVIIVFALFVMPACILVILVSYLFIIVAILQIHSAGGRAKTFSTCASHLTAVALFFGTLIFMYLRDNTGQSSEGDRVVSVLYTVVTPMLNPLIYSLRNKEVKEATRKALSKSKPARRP

Data set [7] has as its target T7, OR9Q2 (Homo sapiens, UniProt Q8NGE9).
T7 construct: expressed in transfected cells; host or cells: HEK293T cells stably expressing human RTP1S (V227I) and RTP2 (L220R)
The description is as above. Type of data set: cell-based. To be noted: changed C-term SEQ ID NO: 86; read-out: Potency EC50.
T7 sequence (Q8NGE9 with tags, fused parts or gaps): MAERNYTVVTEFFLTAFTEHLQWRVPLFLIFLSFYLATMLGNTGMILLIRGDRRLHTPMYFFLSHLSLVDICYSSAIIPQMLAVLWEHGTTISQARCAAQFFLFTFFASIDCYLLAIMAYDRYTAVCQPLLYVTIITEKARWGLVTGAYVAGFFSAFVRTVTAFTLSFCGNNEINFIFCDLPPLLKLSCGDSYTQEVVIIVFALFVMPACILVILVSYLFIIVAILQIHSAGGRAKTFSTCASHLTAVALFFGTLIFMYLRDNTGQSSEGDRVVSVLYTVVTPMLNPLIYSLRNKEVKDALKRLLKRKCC

Data set [8] deals with T8, OR identified in the library screening (receptor named per line) (Homo sapiens, UniProt Q8NGX5).
T8 construct: expressed in transfected cells; host or cells: HEK293T stably expressing human RTP1S(V227I) and RTP2(L220R) (general method)
Put plainly: Confirmatory dose-response of library hits, wild-type OR vs OR with C-terminus SEQ ID NO: 221 (Table 17). Type of data set: cell-based. Particulars: receptor OR10K1, wild-type sequence; read-out: Potency EC50 wild-type (converted).
Method: as §2, §3

Data set [9] concerns the target T9, OR52A5 (Homo sapiens, UniProt Q9H2C5).
T9 construct: expressed in transfected cells; host or cells: HEK293T cells stably expressing human RTP1S (V227I) and RTP2 (L220R)
As to the kind of experiment: cell-based. The class given is cell-based.
T9 sequence (Q9H2C5 whole entry): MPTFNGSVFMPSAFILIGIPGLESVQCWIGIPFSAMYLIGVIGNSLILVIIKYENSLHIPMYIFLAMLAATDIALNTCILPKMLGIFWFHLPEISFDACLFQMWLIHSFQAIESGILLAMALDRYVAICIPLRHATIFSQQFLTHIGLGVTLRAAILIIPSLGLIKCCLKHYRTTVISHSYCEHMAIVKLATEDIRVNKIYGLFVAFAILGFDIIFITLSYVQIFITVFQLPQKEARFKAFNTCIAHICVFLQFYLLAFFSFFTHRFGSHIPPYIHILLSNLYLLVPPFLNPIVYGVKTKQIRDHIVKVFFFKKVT

The target in data set [10] is T10, OR52A5 (Homo sapiens, UniProt Q9H2C5).
T10 construct: expressed in transfected cells; host or cells: HEK293T cells stably expressing human RTP1S (V227I) and RTP2 (L220R)
As to the kind of experiment: cell-based. Type of data set: cell-based. This is another data set of the same source.
T10 sequence (Q9H2C5 with tags, fused parts or gaps): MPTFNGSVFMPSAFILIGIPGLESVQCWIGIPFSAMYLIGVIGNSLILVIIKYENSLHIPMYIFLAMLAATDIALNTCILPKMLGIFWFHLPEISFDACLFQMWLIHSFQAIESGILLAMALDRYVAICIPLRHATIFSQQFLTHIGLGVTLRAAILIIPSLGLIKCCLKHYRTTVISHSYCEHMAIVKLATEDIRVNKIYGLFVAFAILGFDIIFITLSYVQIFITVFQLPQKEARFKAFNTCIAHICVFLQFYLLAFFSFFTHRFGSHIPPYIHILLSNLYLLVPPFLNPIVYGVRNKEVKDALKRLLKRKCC

For data set [11], the system named is OR52A5. As to the kind of experiment: cell-based. Type of data set: cell-based, human.
The target in data set [12] is T11, OR identified in the library screening (receptor named per line) (Homo sapiens, UniProt Q8NGJ0).
T11 construct: expressed in transfected cells; host or cells: HEK293T stably expressing human RTP1S(V227I) and RTP2(L220R) (general method)
Put plainly: Confirmatory dose-response of library hits, wild-type OR vs OR with C-terminus SEQ ID NO: 221 (Table 17). The class given is cell-based.
Method: as §2, §3

Data set [13] deals with T12, OR identified in the library screening (receptor named per line) (Homo sapiens, UniProt Q8NGG4).
T12 construct: expressed in transfected cells; host or cells: HEK293T stably expressing human RTP1S(V227I) and RTP2(L220R) (general method)
The data set is described as above. Particulars: receptor OR8H1, wild-type sequence; read-out: Potency EC50 wild-type (converted). Type of data set: cell-based.
Method: as §2, §3

Data set [14] addresses T13, OR identified in the library screening (receptor named per line) (Homo sapiens, UniProt Q8NGN4).
T13 construct: expressed in transfected cells; host or cells: HEK293T stably expressing human RTP1S(V227I) and RTP2(L220R) (general method)
Described as above. Type of data set: cell-based. To be noted: receptor OR10G9, wild-type sequence; read-out: Potency EC50 wild-type (converted).
Method: as §2, §3

T2 sequence (Q8NGC4 whole entry S73G): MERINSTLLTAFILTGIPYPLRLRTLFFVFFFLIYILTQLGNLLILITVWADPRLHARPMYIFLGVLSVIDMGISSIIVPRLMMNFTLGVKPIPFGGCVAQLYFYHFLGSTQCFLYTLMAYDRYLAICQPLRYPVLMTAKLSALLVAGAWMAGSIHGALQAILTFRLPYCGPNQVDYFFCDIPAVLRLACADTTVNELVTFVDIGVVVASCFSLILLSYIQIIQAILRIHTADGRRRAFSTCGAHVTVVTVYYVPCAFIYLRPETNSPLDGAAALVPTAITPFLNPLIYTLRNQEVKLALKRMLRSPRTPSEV

For orientation: EC50 means the concentration needed to bring the measured effect to its halfway point. As for `CC1=C(O)C(=O)OC1C` (stereo not shown) [Sotolon e], the EC50 in data set [1] is 19 µM.

With `COc1cc(C=O)ccc1O` [Vanillin], the EC50 in data set [2] was 261 µM.

For the compound `CCOC(=O)C1CCCCC1` [Ethyl cyclohexanecarboxylate (Esterly), Ethyl cyclohexanecarboxylate], the EC50 in data set [3] is 115 µM.

Consider `O=C1CCCCCCCC=CCCCCCCO1` [Ambrettolide], for which the “Detection threshold; concentration for 2-fold induction” value at OR1N2 [4] stood at 0.26 µM; at OR1N2 [5], 1.33 µM.

With `Cc1ccc(O)cc1` [Para-Cresol], the EC50 on OR9Q2 [6] amounted to 30.7 µM; on OR9Q2 [7], 2.8 µM.

On to `CC(C)CCc1ccc2c(c1)OCC(=O)CO2` [7-(3-Methylbutyl)-benzo[b][1,4]dioxepin-3-one], for which the concentration giving a half-maximal response (EC50) in data set [8] is 6.8 µM.

As to `CCCCC(CC)CCC(=O)O` (stereo not shown) [4-ethyloctanoic acid], the “Detection threshold; concentration for 2-fold induction” value on OR52A5 [9] is recorded as over 1000 µM; at OR52A5 [10], 101 µM. For the same compound, the EC50 at OR52A5 [10] (changed C-term SEQ ID NO: 86, read-out: Potency EC50) came out at 300 µM. Also, in the data set with OR52A5 [11], the Comments on efficacy is reported as 2.5-fold lower maximal induction for wild-type. In the data set with OR52A5 [11], this compound registered a Fold-improvement threshold of over 10.

As to `CC(=O)/C=C/C1=C(C)CCCC1(C)C` [β-lonone], the 50% effective concentration (EC50) in [12] is 48.3 µM.

Regarding `N#CC(=C1CCCCC1)c1ccccc1` [Peonile], the EC50 in data set [13] is 17.3 µM.

In the case of `CCOc1cc(C)ccc1O` [Ultravan il], the EC50 in [14] is 91.4 µM.
